Consider 1 molecule from patent US11110195B2, “Esculentin 1a derivatives and uses thereof” (University of Houston System, priority 2013, dated 2021).

Values after ≈ are worked out from the molar mass of the structure shown. Residues, ends and D or L forms follow the SMILES beside them.

The nature of one series: in vitro. The following applies: human, human telomerase immortalized corneal epithelial cells. As to the method:
(§1) Human corneal epithelial cells were incubated with varying concentrations of Esc-1a(1-21)NH2 for 24 hrs then cytotoxicity determined by MTT assay. Data are the mean of 3 independent experiments.
(§2) To determine the toxicity of Esc-1a(1-21)NH2 to human telomerase immortalized corneal epithelial cells, the following experiment was performed. The MTT (3-(4,5-Dimethylthiazole-2-yl)-2,5-diphenyltetrazolium bromide) assay measures the activity of enzymes that reduce the tetrazolium blue dye to a formazan salt. Mitochondrial reductase enzymes will reduce MTT to formazan, which can be visualized by colorimetric reaction the absorbance of which can be quantified.
(§3) MTT assay was performed on human telomerase immortalized corneal epithelial cells treated with different concentrations of the peptide for 24 hrs. The test was performed in triplicate or quadruplicate wells with concentrations of the peptide of up to 100 μM using the following protocol. On day 1, plated the telomerase immortalized epithelial cells at 10,000 cells/well in a 96 well plate. Incubated the plate at 37° C. for […] to allow the cells to attach to the plate and spread. On day 2, incubated the cells in serum free media for at least 6 hrs prior to peptide treatment. On day 3, stimulated the cells with 100, 50, 25, 10, 5, 1, 0.5 and 0.1 μM Esc-1a(1-21)NH2 in quadruplicate for 24 hrs. On day 4, added 50 μl of 0.02% Benzalkonium chloride into 4 wells as a positive control for 15 minutes. Added 50 μl of serum free media into all the other wells (total volume 100 μl). Added 10 μl of MTT stock solution into each of the well. Incubated at 37° C. for 3 hours. At the end of 3 hours purple crystals were visible under the microscope. Added 100 μl of stop solution into each well using a multichannel pipette. Pipetted up and down to dissolve all the crystals. Gently popped the bubbles using a 10 μl tip. Read plate using plate reader at 590 nm abs and 635 nm reference. Subtracted reference OD value (635) from 590 OD value and plotted graph.

The subject of series [1] is human telomerase immortalized corneal epithelial cells. Nature of the series: in vitro. The following applies: 24 hrs. The method, then: as §1, §2, §3
Series [2] relates to Pseudomonas aeruginosa ATCC 19660 induced keratitis. Nature of the series: Neutrophil infiltration into cornea by myeloperoxidase (MPO) assay. It counts as in vivo, C57BL/6 mice. An excerpt: Corneas were harvested 1,3 and 5 days after infection and neutrophil infiltration determined by MPO assay. […] PI=post infection, Pre-trt=pretreatment with Esc-1a(1-21)NH2. *Indicates significant difference, p<0.05, among PBS control and peptide treated groups.
To determine a clinical score, neutrophil infiltration by myeloperoxidase assay (MPO assay) and viable bacterial cell counts in infected and control corneas of C57BL/6 mice with Pseudomonas aeruginosa ATCC 19660 keratitis following pre-treatment and post-infection treatment with Esc-1a(1-21)NH2 up to 5 days post-infection (PI) the following experiment was performed. In these experiments pre-treatment refers to a group of animals where treatment was initiated 24 hrs before infection then continued after infection.
An MPO assay was used to quantitate polymorphonuclear cell numbers in the cornea from both infected corneas (n=2/group/time point) of Esc-1a(1-21)NH2 treated and control (PBS) treated animals. Briefly, corneas were harvested at days 1, 3 and 5 PI. The change in absorbance at 450 nm was monitored for one hour at 15-30 minute intervals. The results were expressed as units of MPO per cornea. One unit of MPO activity is equivalent to 2*10^5 polymorphonuclear cells.
Harvested and pooled corneas (2 mice/group) in 200 μl of sterile PBS/cornea. Placed the harvested corneas on ice until further processing. Homogenized the corneas for 30-45 seconds and briefly sonicated them for 10-20 seconds.
C. Added 10 μl of 0.5% HTAB (hexadecyltrimethylammonium bromide in potassium phosphate buffer 50 mM pH 6) to 90 μl homogenate (*stored the remaining homogenate on ice to obtain recoverable P. aeruginosa counts for viability assay).
D. Sonicated samples 2×5 seconds then freeze thawed three times on liquid nitrogen.
E. Centrifuged at 14000*g at 4° C. for 20 minutes.
F. To 10 ml of phosphate buffer added 0.00167 g 0-dianisidine dihydrochloride and 1.67 μl (0.05%) H2O2. 90 μl of this was added to each well to produce the color reaction (protected the solution from light).
G. Made up standards for MPO using phosphate buffer based on the initial concentration of the MPO. Double diluted 25 μl MPO standard & carry 25 μl over since 10 μl was needed per well (run in duplicate).
H. Added 10 μl of each standard to 96 well plate and 10 μl sample supernatant (in triplicate).
I. Added 90 μl phosphate buffer containing O-d-d and H2O2 to the plate. Popped bubbles and read on spectrophotometer at 450 nm at 3 minutes, 5 minutes, 10 minutes, 15 minutes, 30 minutes, 45 minutes and 60 minutes.
The MPO units per cornea were determined and the mean from 3 independent experiments was plotted (FIG. 6).

A further series deals with Pseudomonas aeruginosa. As to conditions: Pseudomonas aeruginosa ATCC 27853, reference strain; cited from earlier work.

`CC[C@H](C)[C@H](NC(=O)CN)C(=O)N[C@@H](Cc1ccccc1)C(=O)N[C@@H](CO)C(=O)N[C@@H](CCCCN)C(=O)N[C@@H](CC(C)C)C(=O)N[C@@H](C)C(=O)NCC(=O)N[C@@H](CCCCN)C(=O)N[C@@H](CCCCN)C(=O)N[C@H](C(=O)N[C@@H](CCCCN)C(=O)N[C@@H](CC(N)=O)C(=O)N[C@@H](CC(C)C)C(=O)N[C@@H](CC(C)C)C(=O)N[C@H](C(=O)N[C@@H](CO)C(=O)NCC(=O)N[C@@H](CC(C)C)C(=O)N[C@@H](CCCCN)C(=O)NCC(N)=O)[C@@H](C)CC)[C@@H](C)CC` [Esc-1a(1-21)NH2] (H-GIFSKLAGKKIKNLLISGLKG-NH2; N-terminus assumed): in “in vitro”, the viability (usually the share of living cells, or the viability signal relative to a control) at 24 h, 50 µM was found to be 75.7%. The viability at 24 h, 100 µM in “in vitro” stood at 17.4%. In addition, the concentrations significantly cytotoxic result in series [1] (MTT (FIG. 4)) was “above 50 μM”. Besides, the “toxicity to the cells” value in series [1] (concentration below 50 μM) was “not toxic”. Moreover, the “normalized MPO activity per cornea” value is on record as 1.55±0.4 MPO units in series [2] (pre-treated, day 1 PI); 1.66±0.13 MPO units in series [2] (pre-treated, day 3 PI); 1.55±0.28 MPO units in series [2] (pre-treated, day 5 PI); 1.69±0.40 MPO units in series [2] (treated after infection, day 1 PI); 1.84±0.16 MPO units in series [2] (treated after infection, day 3 PI); 1.82±0.42 MPO units in series [2] (treated after infection, day 5 PI). For the same molecule, the MIC (in general, the lowest concentration found to suppress growth) in the series with Pseudomonas aeruginosa is 4 µM (≈ 8.74 µg/mL).
